According to patent publication US20240408085A1, “COMPOUND FOR DEGRADATION OF BCL-2 FAMILY PROTEINS AND MEDICAL APPLICATION THEREOF” (XIZANG HAISCO PHARMACEUTICAL CO., LTD., priority 2021, published 2024):

Assays:
BCL-xL proteins = biological target: T1, BCL-xL proteins (Homo sapiens, UniProt Q07817); experiment: BCL-xL degradation activity in MOLT-4 cells (western blot, 16 h); assay type: cell-based
T1 construct: degradation effect on the BCL-xL proteins in MOLT-4 cells; host or cells: MOLT-4
Protocol: MOLT-4 cells are acute lymphoblastic leukemia cell lines in humans. The cells were purchased from ATCC. Culture conditions: RPMI-1640+10% FBS+1% penicillin-streptomycin solution. The cells were cultured in a 37° C., 5% CO2 incubator. The cells were plated in a 12-well plate, with 2×10^5 cells/well. After plating, compounds at different concentrations were added and cultured in a 37° C., 5% CO2 incubator for 16 h. After the completion of culture, the cells were harvested and RIPA lysis buffer (beyotime, Cat. P0013B) was added. The cells were lysed on ice for 15 minutes and centrifuged at 12000 rpm at 4° C. for 10 minutes. The supernatant protein samples were collected and the protein was quantified by using the BCA kit (Beyotime, Cat. P0009). Then the protein was diluted to 0.8 mg/mL. The expressions of BCL-xL (CST, Cat. 2764S), BCL-2 (CST, Cat. 15071S) and the internal reference β-actin (CST, Cat. 3700S) were detected using a fully automated western blot quantitative analyzer (Proteinsimple). The expression level of BCL-xL or BCL-2 relative to the internal reference was calculated by using Compass software, and the DC50 value was calculated by using GraphPad Prism 8.0 software according to formula (1), wherein the Proteinadministration denoted the relative expression level of BCL-xL or BCL-2 in administration groups at different doses, and the Proteinvehicle denoted the relative expression level of BCL-xL or BCL-2 in the vehicle control group.
Protein %=Proteinadministration/Proteinvehicle×100% formula (1)

platelet (PLT) = experiment: Effect on platelet (PLT) after single intravenous injection; assay type: in vivo, SD rats
Protocol: Experimental animal: 78 SD rats, with an equal number of males and females, male (♂): 290-380 g, female (♀): 220-290 g, 8-10 weeks old, purchased from Zhejiang Vital River Laboratory Animal Technology Co., Ltd.
Experimental protocol: a clear solution was formulated using a vehicle ([…]). The animals were dosed via tail vein a single time (administration volume: 20 mL/kg; bolus injection period: about 4 minutes; recovery period: 7 days).

MOLT-4 cells = experiment: Cell proliferation activity in MOLT-4 cells (72 h, cell viability luminescence); assay type: cell-based, human; conditions: Homo sapiens, read-out: IC50 for the inhibition of MOLT-4 cell proliferation
Method in brief: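 Human acute lymphoblastic leukemia cells were seeded at 5×10^3 cells/well in RPMI-1640 with 10% FBS. They were treated with serially varied compound concentrations for 72 h at 37° C., 5% CO2. A luminescent viability reagent was used for read-out. IC50 was derived relative to vehicle control; maximum inhibition was the inhibition rate at the highest concentration.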

T1 sequence (Q07817 whole entry): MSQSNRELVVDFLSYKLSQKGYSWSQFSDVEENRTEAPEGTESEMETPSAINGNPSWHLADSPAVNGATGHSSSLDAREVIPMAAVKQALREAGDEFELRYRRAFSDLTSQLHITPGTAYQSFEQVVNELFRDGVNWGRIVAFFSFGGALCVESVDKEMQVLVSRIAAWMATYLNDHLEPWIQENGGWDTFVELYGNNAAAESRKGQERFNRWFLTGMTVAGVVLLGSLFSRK

In the case of `Cc1ncsc1-c1ccc([C@H](C)NC(=O)[C@@H]2C[C@@H](O)CN2C(=O)[C@@H](NC(=O)CCCCCC(=O)N2CCN(CC[C@H](CSc3ccccc3)Nc3ccc(S(=O)(=O)NC(=O)c4ccc(N5CCN(CC6=C(c7ccc(Cl)cc7)CCC(C)(C)C6)CC5)cc4)cc3S(=O)(=O)C(F)(F)F)CC2)C(C)(C)C)cc1` [Control compound, DT2216, reference compound], the DC50 (BCL-xL proteins) is reported as > 20 nM, the “Effect on PLT (↓ decrease)” value (platelet (PLT); SD rats ♀, 6 mg/kg single i.v., 4 h) is reported as “↓24%” and the “Effect on PLT (↓ decrease)” value (platelet (PLT); SD rats ♀, 6 mg/kg single i.v., D2) is reported as “↓78%”. For the same compound, the “Effect on PLT (↓ decrease)” value (platelet (PLT); SD rats ♀, 20 mg/kg single i.v., 4 h) was “↓89%”, the “Effect on PLT (↓ decrease)” value (platelet (PLT); SD rats ♀, 20 mg/kg single i.v., D2) was “↓96%” and the “Effect on PLT (↓ decrease)” value (platelet (PLT); SD rats ♀, 60 mg/kg single i.v., D8) was “↓87%”. For the same compound, the “Effect on PLT (↓ decrease)” value (platelet (PLT); SD rats ♂, 6 mg/kg single i.v., 4 h) was “↓26%”, the “Effect on PLT (↓ decrease)” value (platelet (PLT); SD rats ♂, 6 mg/kg single i.v., D2) was “↓69%” and the “Effect on PLT (↓ decrease)” value (platelet (PLT); SD rats ♂, 20 mg/kg single i.v., 4 h) was “↓81%”. For the same compound, the “Effect on PLT (↓ decrease)” value (platelet (PLT); SD rats ♂, 20 mg/kg single i.v., D2) was “↓91%” and the “Effect on PLT (↓ decrease)” value (platelet (PLT); SD rats ♂, 60 mg/kg single i.v., D8) was “↓73%”.
In the case of `Cc1ncsc1-c1ccc([C@H](C)NC(=O)[C@@H]2C[C@@H](O)CN2C(=O)[C@@H](NC(=O)CCCCCC(=O)N2C[C@H]3C[C@@H]2CN3CC[C@H](CSc2ccccc2)Nc2ccc(S(=O)(=O)NC(=O)c3ccc(N4CCN(CC5=C(c6ccc(Cl)cc6)CCC(C)(C)C5)CC4)cc3)cc2S(=O)(=O)C(F)(F)F)C(C)(C)C)cc1` [Compound 10, (2S,4R)-1-((S)-2-(7-((1R,4R)-5-((R)-3-((4-(N-(4-(4-((4′-chloro-4,4-dimethyl-3,4,5,6-tetrahydro-[1,1′-biphenyl]-2-yl)methyl)piperazin-1-yl)benzoyl)sulfamoyl)-2-((trifluoromethyl)sulfonyl)phenyl)amino)-4-(phenylthio)butyl)-2,5-diazabicyclo[2.2.1]heptan-2-yl)-7-oxoheptanamido)-3,3-dimethylbutanoyl)-4-hydroxy-N—((S)-1-(4-(4-methylthiazol-5-yl)phenyl)ethyl)pyrrolidine-2-carboxamide], the DC50 (BCL-xL proteins) is reported as 3.7 nM and the IC50 (MOLT-4 cells) is reported as < 500 nM.
For `Cc1ncsc1-c1ccc([C@H](C)NC(=O)[C@@H]2C[C@@H](O)CN2C(=O)[C@@H](NC(=O)CCCC(=O)N2C[C@H]3CN(CC[C@H](CSc4ccccc4)Nc4ccc(S(=O)(=O)NC(=O)c5ccc(N6CCN(CC7=C(c8ccc(Cl)cc8)CCC(C)(C)C7)CC6)cc5)cc4S(=O)(=O)C(F)(F)F)C[C@H]3C2)C(C)(C)C)cc1` [Compound 15, cis-(2S,4R)-1-((S)-2-(5-(5-((R)-3-((4-(N-(4-(4-((4′-chloro-4,4-dimethyl-3,4,5,6-tetrahydro-[1,1′-biphenyl]-2-yl)methyl)piperazin-1-yl)benzoyl)sulfamoyl)-2-((trifluoromethyl)sulfonyl)phenyl)amino)-4-(phenylthio)butyl)hexahydropyrrolo[3,4-c]pyrrol-2(1H)-yl)-5-oxopentanamido)-3,3-dimethylbutanoyl)-4-hydroxy-N—((S)-1-(4-(4-methylthiazol-5-yl)phenyl)ethyl)pyrrolidine-2-carboxamide], the DC50 (BCL-xL proteins) was 3.6 nM and the IC50 (MOLT-4 cells) was < 500 nM.
`Cc1ncsc1-c1ccc([C@H](C)NC(=O)[C@@H]2C[C@@H](O)CN2C(=O)[C@@H](NC(=O)CCCCCC(=O)N2C[C@H]3C[C@@H]2CN3CC[C@H](CSc2ccccc2)Nc2ccc(S(=O)(=O)NC(=O)c3ccc(N4CCN(CC5=C(c6ccc(Cl)cc6)CCC6(CC6)C5)CC4)cc3)cc2S(=O)(=O)C(F)(F)F)C(C)(C)C)cc1` [Compound 19, (2S,4R)-1-((S)-2-(7-((1R,4R)-5-((R)-3-((4-(N-(4-(4-((6-(4-chlorophenyl)spiro[2.5]oct-5-en-5-yl)methyl)piperazin-1-yl)benzoyl)sulfamoyl)-2-((trifluoromethyl)sulfonyl)phenyl)amino)-4-(phenylthio)butyl)-2,5-diazabicyclo[2.2.1]heptan-2-yl)-7-oxoheptanamido)-3,3-dimethylbutanoyl)-4-hydroxy-N—((S)-1-(4-(4-methylthiazol-5-yl)phenyl)ethyl)pyrrolidine-2-carboxamide] was tested, and the DC50 (BCL-xL proteins) was 10.7 nM and the IC50 (MOLT-4 cells) was < 500 nM.
With `Cc1ncsc1-c1ccc([C@H](C)NC(=O)[C@@H]2C[C@@H](O)CN2C(=O)[C@@H](NC(=O)CCCCCC(=O)N2C[C@H]3CN(CC[C@H](CSc4ccccc4)Nc4ccc(S(=O)(=O)NC(=O)c5ccc(N6CCN(CC7=C(c8ccc(Cl)cc8)CCC(C)(C)C7)CC6)cc5)cc4S(=O)(=O)C(F)(F)F)C[C@H]3C2)C(C)(C)C)cc1` [Compound 8, cis-(2S,4R)-1-((2S)-2-(7-(5-((R)-3-((4-(N-(4-(4-((4′-chloro-4,4-dimethyl-3,4,5,6-tetrahydro-[1,1′-biphenyl]-2-yl)methyl)piperazin-1-yl)benzoyl)sulfamoyl)-2-((trifluoromethyl)sulfonyl)phenyl)amino)-4-(phenylthio)butyl)hexahydropyrrolo[3,4-c]pyrrol-2(1H)-yl)-7-oxoheptanamido)-3,3-dimethylbutanoyl)-4-hydroxy-N—((S)-1-(4-(4-methylthiazol-5-yl)phenyl)ethyl)pyrrolidine-2-carboxamide] the DC50 (BCL-xL proteins) was 8.8 nM and the IC50 (MOLT-4 cells) was < 500 nM.
`Cc1ncsc1-c1ccc([C@H](C)NC(=O)[C@@H]2C[C@@H](O)CN2C(=O)[C@@H](NC(=O)CCCCCC(=O)N2CCN(CC[C@H](CSc3ccccc3)Nc3ccc(S(=O)(=O)NC(=O)c4ccc(N5CCN(CC6=C(c7ccc(Cl)cc7)CCC7(CC7)C6)CC5)cc4)cc3S(=O)(=O)C(F)(F)F)CC2)C(C)(C)C)cc1` [Compound 11, (2S,4R)-1-((S)-2-(7-(4-((R)-3-((4-(N-(4-(4-((6-(4-chlorophenyl)spiro[2.5]oct-5-en-5-yl)methyl)piperazin-1-yl)benzoyl)sulfamoyl)-2-((trifluoromethyl)sulfonyl)phenyl)amino)-4-(phenylthio)butyl)piperazin-1-yl)-7-oxoheptanamido)-3,3-dimethylbutanoyl)-4-hydroxy-N—((S)-1-(4-(4-methylthiazol-5-yl)phenyl)ethyl)pyrrolidine-2-carboxamide] was tested, and the DC50 (BCL-xL proteins) was 5.3 nM and the IC50 (MOLT-4 cells) was < 500 nM.
